# Measured values taken from patent publication US12466839B2, “Allosteric AKT inhibitors for use in the treatment of Hereditary Hemorrhagic Telangiectasia” (VADERIS THERAPEUTICS AG, priority 2020, dated 2025).
# How the values were obtained:
# [1] = target: AKT3 (Homo sapiens, UniProt Q9Y243); assay: Panel of 450 kinases; assay type: biochemical
# [2] = target: Nav1.5 (Homo sapiens, UniProt Q14524); assay: Cardiac ion channel profile; assay type: cell-based
# [3] = system: angiogenesis in C57Bl/6J mice retinas; assay: Neonatal retinal angiogenesis model in wild-type mice; assay type: in vivo, mouse (C57Bl/6J); conditions: 2.5 mg·kg−1
# Description: For the retinal vascular network, quantification of the number of AV shunts per mouse was done manually. […] A custom own-lab made macro allowed automatic processing of the images, using the same processing and quantification parameters. Briefly, the brightness of the images was enhanced by modifying the pixel extreme values, which depends on the specific image histogram content. A Gaussian filter was applied to reduce the intensity in homogeneities. The filter order depended on the image resolution. Next, the threshold step was computed, based on a global threshold technique such as Otsu's method or Li's method, resulting in binary image. A median filter was then applied to eliminate potential local irregularities, which could cause false branching point detection. From the binary images, the vascular density was quantified (calculated as the ratio of pixels associated with the vessels divided by the total number of pixels in the image). For the other parameters, a skeleton of the images was first computed using ImageJ, then the total vascular length was quantified using the Measure Skeleton Length plug-in from ImageJ. The number of branch points was extracted from the Analyze Skeleton plug-in of ImageJ. All results were transferred to Microsoft Office Excel software and automatically rearranged using a lab custom-made program. As all images generated at each step of the processing were saved, a visual control was made to ensure that there were no aberrant results.
# Statistical analysis was performed with Prism 7 software (GraphPad). For most of the experiments, 1-way ANOVA was used for multiple comparisons. Results are expressed as mean±SEM. For post hoc pairwise, the Dunnett's test was used. A value of *P<0.05, **P<0.01, ***P<0.001 or ****P<0.0001 denotes statistical significance. An in-group variation of around 15% in parameters related to blood vessel architecture changes has been previously observed by the inventors, therefore a difference between controls and mutant mice of around 20-30% was anticipated. It was therefore expected that a group of 8 mice per condition would reveal statistical differences.
# Eyes were fixed in 4% paraformaldehyde (PFA) in PBS at room temperature for 10 min, retinas were dissected, post-fixed in 4% PFA in PBS at 4° C. overnight then processed for immunostaining. Retinas were permeabilized in PBS, 1% BSA and 0.5% Triton X-100 at 4° C. overnight, rinsed in PBS, washed twice in PBlec (PBS, pH 6.8, 1% Triton-X-100, 0.1 mM CaCl2, 0.1 mM MgCl2, 0.1 mM MnCl2), and then incubated in biotinylated Griffonia simplicifolia lectin (isolectin B4) (B-1205, Vector Laboratories, 1:50) in PBlec at 4° C. overnight. After 5 washes in PBS, samples were incubated with streptavidin Cy-3 (PA43001, Sigma-Aldrich, 1:100) and with a-SMA (clone 1A4) (F3777, Sigma-Aldrich) conjugated with FITC diluted in PBS, 0.5% BSA, and 0.25% X-100 at 4° C. for 2 h. After washing, flat whole-mount retinas were mounted in DAKO medium (S3023, Dako). Complete high-resolution 3-dimensional rendering of whole-mount retinas was acquired using Laser Scanning Microscope SP5 or SP8 (Leica).
# [4] = system: AKT; assay: AKT inhibition in primary lung endothelial cells with normal Eng expression (western blot); assay type: cell-based; conditions: Mus musculus, Endothelial cell; lung ECs from controls with normal level of Eng expression; VEGF-A stimulation
# Description: Lungs from Engflox/flox pups were surgically removed, rinsed in ice-cold DMEM and endothelial cells were isolated as described in Galaris et al., (2021) “In vitro Three-Dimensional Sprouting Assay of Angiogenesis using Mouse Embryonic Stem Cells for Vascular Disease Modeling and Drug Testing” J Vis Exp (171). In summary, tissues were minced by the use of scissors, digested in DMEM-3 mg·ml-1 Collagenase A (10103586001, Roche) for 15 min at 37° C. and then filtered through a 70-μm strainer. The cell suspension was centrifuged at 200 g for 5 min and CD45+ cells were removed using Dynabeads sheep anti-Rat IgG (11035, Invitrogen) coated with rat anti-mouse CD45 antibody (550539, BD Pharmigen). Endothelial cells were sorted using Dynabeads sheep anti-Rat IgG (11035, Invitrogen) coated with rat anti-mouse PECAM1 antibody (550274, BD Pharmigen) according to the manufacturer's instructions. After washing 5 times with DMEM-0.1% BSA, cells were seeded in 6 well plates. Lung and liver ECs were maintained for two-three passages in Endothelial Cell Growth Medium 2 (C-22011, PromoCell) complemented with Fetal Calf Serum, Human Epidermal Growth Factors, Basic Fibroblast Growth Factor, Insulin like Growth Factor, Human Vascular Endothelial Growth Factor-165, Ascorbic acid, Heparin and Hydrocortisone (C-39211, SupplementPack EC GM2, PromoCell). […]
# [5] = target: T1, DP (Homo sapiens, UniProt Q13258); assay: Millipore Drug Discovery Safety and Liability Panel; assay type: cell-based
# T1 construct: purchased Millipore
# [6] = target: T2, PTH1 (Homo sapiens, UniProt Q03431); assay: as above; assay type: cell-based
# T2 construct: Millipore
# [7] = target: T3, V2 (Homo sapiens, UniProt P30518); assay: as above; assay type: cell-based
# T3 construct: Millipore
# [8] = read-out: ANTAGONIST mean % inhibition
# T2 sequence (Q03431 27-593): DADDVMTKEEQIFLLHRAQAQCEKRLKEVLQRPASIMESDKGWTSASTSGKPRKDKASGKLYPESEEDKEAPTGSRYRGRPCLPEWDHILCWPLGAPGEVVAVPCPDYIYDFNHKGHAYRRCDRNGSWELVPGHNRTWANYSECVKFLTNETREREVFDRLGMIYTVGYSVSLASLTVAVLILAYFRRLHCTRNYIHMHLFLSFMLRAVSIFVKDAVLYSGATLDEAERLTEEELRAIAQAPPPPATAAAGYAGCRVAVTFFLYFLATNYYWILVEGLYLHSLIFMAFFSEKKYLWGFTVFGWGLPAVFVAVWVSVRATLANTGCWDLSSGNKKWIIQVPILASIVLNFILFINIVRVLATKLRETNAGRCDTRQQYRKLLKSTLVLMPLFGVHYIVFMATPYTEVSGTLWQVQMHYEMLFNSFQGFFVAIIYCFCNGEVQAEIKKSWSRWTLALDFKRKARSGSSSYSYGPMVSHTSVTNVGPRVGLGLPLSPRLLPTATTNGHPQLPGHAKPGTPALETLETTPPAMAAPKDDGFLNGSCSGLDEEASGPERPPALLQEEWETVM
# T1 sequence (Q13258 whole entry): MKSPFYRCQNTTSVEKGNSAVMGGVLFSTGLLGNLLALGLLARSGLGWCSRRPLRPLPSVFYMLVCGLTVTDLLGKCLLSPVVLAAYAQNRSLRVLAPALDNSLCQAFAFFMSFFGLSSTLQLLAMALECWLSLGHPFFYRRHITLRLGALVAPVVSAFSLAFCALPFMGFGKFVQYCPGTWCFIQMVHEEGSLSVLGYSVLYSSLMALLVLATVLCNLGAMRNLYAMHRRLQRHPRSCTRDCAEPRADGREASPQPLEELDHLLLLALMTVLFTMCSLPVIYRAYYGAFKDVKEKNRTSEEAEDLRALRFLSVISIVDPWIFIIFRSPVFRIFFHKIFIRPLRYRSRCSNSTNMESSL
# T3 sequence (P30518 whole entry): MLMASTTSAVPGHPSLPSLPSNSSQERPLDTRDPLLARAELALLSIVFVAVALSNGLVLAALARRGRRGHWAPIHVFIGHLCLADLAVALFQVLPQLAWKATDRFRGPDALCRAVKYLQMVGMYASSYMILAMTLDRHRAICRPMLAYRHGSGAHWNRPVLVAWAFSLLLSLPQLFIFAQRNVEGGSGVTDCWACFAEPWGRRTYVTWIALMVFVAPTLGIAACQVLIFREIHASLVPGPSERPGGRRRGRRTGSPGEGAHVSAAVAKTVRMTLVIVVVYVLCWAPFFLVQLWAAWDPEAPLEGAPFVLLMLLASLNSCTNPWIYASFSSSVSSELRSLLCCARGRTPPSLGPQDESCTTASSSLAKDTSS
# Nav1.5, sequence (Q14524 whole entry): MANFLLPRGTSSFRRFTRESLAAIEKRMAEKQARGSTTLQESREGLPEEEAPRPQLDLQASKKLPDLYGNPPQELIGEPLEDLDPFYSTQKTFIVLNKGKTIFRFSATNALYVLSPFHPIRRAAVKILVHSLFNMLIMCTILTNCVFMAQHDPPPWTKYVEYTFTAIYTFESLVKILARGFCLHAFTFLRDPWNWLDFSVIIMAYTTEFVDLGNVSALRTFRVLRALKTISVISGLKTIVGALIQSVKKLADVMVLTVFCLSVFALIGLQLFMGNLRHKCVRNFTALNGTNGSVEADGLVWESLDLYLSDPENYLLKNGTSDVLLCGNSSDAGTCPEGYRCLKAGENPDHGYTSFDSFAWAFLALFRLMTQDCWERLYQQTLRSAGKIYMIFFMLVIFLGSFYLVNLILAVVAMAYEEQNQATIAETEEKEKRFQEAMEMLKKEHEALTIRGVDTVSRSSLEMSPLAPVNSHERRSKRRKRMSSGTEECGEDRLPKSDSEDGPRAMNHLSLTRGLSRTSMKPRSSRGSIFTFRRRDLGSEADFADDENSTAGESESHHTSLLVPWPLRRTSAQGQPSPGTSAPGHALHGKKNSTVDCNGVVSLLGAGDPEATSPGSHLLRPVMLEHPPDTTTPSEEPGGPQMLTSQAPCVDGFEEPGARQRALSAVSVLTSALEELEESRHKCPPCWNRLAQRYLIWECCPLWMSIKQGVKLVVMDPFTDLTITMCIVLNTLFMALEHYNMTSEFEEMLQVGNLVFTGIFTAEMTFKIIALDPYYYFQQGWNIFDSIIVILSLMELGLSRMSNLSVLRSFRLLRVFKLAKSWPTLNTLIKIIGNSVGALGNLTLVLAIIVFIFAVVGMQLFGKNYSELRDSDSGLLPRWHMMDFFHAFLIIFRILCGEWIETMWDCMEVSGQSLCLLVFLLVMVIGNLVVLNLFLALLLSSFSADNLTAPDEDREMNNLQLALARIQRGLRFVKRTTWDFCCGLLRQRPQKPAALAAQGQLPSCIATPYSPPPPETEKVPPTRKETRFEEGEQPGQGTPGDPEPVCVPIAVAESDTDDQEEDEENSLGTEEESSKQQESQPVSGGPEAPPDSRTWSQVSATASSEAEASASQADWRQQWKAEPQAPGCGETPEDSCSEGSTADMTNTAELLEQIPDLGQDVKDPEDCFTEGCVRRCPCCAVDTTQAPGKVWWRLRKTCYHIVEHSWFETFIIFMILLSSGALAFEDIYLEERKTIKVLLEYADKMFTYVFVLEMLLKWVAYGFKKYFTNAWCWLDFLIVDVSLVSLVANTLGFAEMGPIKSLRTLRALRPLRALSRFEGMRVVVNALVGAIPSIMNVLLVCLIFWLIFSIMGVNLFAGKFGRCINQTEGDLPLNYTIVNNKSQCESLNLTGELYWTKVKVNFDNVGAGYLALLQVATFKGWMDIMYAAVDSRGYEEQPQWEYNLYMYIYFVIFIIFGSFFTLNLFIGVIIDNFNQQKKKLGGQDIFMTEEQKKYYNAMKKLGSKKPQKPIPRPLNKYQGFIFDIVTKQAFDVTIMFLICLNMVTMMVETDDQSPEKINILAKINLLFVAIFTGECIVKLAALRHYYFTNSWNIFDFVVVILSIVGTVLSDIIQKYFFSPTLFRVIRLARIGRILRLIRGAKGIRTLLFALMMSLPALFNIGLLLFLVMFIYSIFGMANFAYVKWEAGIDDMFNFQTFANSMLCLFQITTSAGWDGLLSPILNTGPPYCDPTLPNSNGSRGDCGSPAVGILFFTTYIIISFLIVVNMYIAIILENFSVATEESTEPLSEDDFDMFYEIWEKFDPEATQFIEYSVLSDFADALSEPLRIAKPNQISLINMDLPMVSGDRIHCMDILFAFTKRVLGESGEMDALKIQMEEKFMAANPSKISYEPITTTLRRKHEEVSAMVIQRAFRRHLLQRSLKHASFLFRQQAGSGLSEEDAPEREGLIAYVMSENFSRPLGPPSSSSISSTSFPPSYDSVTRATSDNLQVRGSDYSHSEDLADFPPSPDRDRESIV
# AKT3, sequence (Q9Y243 whole entry): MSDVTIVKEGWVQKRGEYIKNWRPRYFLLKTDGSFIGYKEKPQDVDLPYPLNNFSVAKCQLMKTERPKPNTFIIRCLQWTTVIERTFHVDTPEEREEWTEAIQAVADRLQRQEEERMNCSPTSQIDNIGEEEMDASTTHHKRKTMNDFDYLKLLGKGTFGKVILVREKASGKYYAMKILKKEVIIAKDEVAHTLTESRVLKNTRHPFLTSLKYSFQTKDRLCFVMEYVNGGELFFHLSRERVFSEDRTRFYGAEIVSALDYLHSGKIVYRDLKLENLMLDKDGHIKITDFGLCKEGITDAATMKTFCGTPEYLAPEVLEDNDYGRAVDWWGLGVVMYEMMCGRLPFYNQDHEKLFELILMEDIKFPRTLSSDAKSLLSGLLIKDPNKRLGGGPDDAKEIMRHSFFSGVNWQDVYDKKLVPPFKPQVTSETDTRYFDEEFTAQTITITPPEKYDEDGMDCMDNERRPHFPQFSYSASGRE
smiles,measurement,setting,value
"CCN1C(=O)COc2nc(-c3ccc(C4(N)CC(O)C4)cc3)c(-c3ccccc3)cc21.O=C(O)C(O)C(O)C(=O)O [VAD044, 6-(4-(1-amino-3-hydroxycyclobutyl)phenyl)-1-ethyl-7-phenyl-1H-pyrido[2,3-b][1,4]oxazin-2(3H)-one L-tartrate]",inhibition at 10 µM,[1],72%
same,inhibition at 10 µM,[2],< 25%
same,impact on normal angiogenesis,[3],little or no impact on normal angiogenesis
same,IC50,[4],55 nM
same,activation at 10 µM,"[5]; DP, 10 μM, read-out: AGONIST mean % increase in activity",-1.7%
same,inhibition at 10 µM,[5]; [8],5.8%
same,activation at 10 µM,"[6]; PTH1, 10 μM, read-out: AGONIST mean % increase in activity",-1.1%
same,inhibition at 10 µM,[6]; [8],-2.5%
same,activation at 10 µM,[7]; read-out: AGONIST mean % increase in activity,-1.5%
same,inhibition at 10 µM,[7]; [8],22.8%
